Assay results taken from ChEMBL document CHEMBL3997785, “Optimization of 2-Anilino 4-Amino Substituted Quinazolines into Potent Antimalarial Agents with Oral in Vivo Activity” (J Med Chem, 2017).
≈ marks a conversion by molar mass, not a printed value. Calls of active or inactive are those of the source. The rule behind the calls is not given here.

Tested on: not listed separately
Assay: Hepatic extraction ratio in mouse liver microsomes at 1 uM in presence of NADPH by LC-MS method
Format: ADME, microsome
Settings: read-out: ERH

SMILES | hepatic extraction ratio at 1 µM
CN1CCC(Nc2nc(Nc3ccc(F)c(Cl)c3)nc3ccccc23)CC1.Cl.Cl | 0.2
COc1cc2nc(Nc3ccc(F)cc3)nc(NCc3ccccc3)c2cc1OC | 0.43

Tested on: Liver
Assay: Drug metabolism in mouse liver microsomes assessed as hydro defluorination at 1 uM after 60 mins in presence of NADPH by LC-MS method
Format: ADME, microsome
Settings: 1 h

SMILES | Drug metabolism
CN1CCC(Nc2nc(Nc3ccc(F)c(Cl)c3)nc3ccccc23)CC1.Cl.Cl | Metabolite_Detected

Tested on: Plasmodium falciparum
Assay: Antimalarial activity against Plasmodium falciparum NF54 harboring pfs16-LUC-GFP late stage 4 to 5 gametocytes after 48 hrs by MitoTracker Red staining based confocal microscopy
Format: functional
Settings: NF54, 48 h

SMILES | EC50 [nM]
CN1CCC(Nc2nc(Nc3ccc(F)c(Cl)c3)nc3ccccc23)CC1.Cl.Cl | 3700

Tested on: Liver
Assay: Drug metabolism in mouse liver microsomes assessed as N-demethylation of methyl piperidine or piperazine at 1 uM after 60 mins in presence of NADPH by LC-MS method
Format: ADME, microsome
Settings: 1 h

SMILES | Drug metabolism
CN1CCC(Nc2nc(Nc3ccc(F)c(Cl)c3)nc3ccccc23)CC1.Cl.Cl | Metabolite_Detected

Tested on: not listed separately
Assay: Intrinsic clearance in human liver microsomes at 1 uM in presence of NADPH by LC-MS method
Format: ADME, microsome
Settings: read-out: CLH

SMILES | microsomal CLint at 1 µM [µL/min/mg]
CN1CCC(Nc2nc(Nc3ccc(F)c(Cl)c3)nc3ccccc23)CC1.Cl.Cl | < 7
COc1cc2nc(Nc3ccc(F)cc3)nc(NCc3ccccc3)c2cc1OC | < 7

Tested on: not listed separately
Assay: Ratio of EC50 for Plasmodium falciparum NF54-pfs16-LUC-GFP ring stage gametocytes to EC50 for Plasmodium falciparum 3D7 asexual blood stage infected in human erythrocytes
Format: functional
Settings: not given

SMILES | Ratio EC50
CN1CCC(Nc2nc(Nc3ccc(F)c(Cl)c3)nc3ccccc23)CC1.Cl.Cl | 10

Tested on: Plasmodium falciparum
Assay: Antimalarial activity against Plasmodium falciparum 3D7 infected in human erythrocytes assessed as arrest at trophozoite stage of asexual life cycle leading to parasite death at 10 times EC50 up to 48 hrs by Giemsa-staining based assay relative to control
Format: functional, cell-based
Settings: not given

SMILES | Activity
CN1CCC(Nc2nc(Nc3ccc(F)c(Cl)c3)nc3ccccc23)CC1.Cl.Cl | inactive

Tested on: Plasmodium falciparum
Assay: Antimalarial activity against Plasmodium falciparum 3D7 asexual blood stage infected in human erythrocytes incubated for 72 hrs by LDH assay
Format: functional, cell-based
Settings: 3D7, 72 h

SMILES | EC50 [nM]
CN1CCC(Nc2nc(Nc3ccc(F)c(Cl)c3)nc3ccccc23)CC1.Cl.Cl | 35
COc1cc2nc(Nc3ccc(F)cc3)nc(NCc3ccccc3)c2cc1OC | 41

Tested on: Liver
Assay: Drug metabolism in human liver microsomes assessed as mono-oxygenation at 6th position of quinazoline at 1 uM after 60 mins in presence of NADPH by LC-MS method
Format: ADME, microsome
Settings: 1 h

SMILES | Drug metabolism
CN1CCC(Nc2nc(Nc3ccc(F)c(Cl)c3)nc3ccccc23)CC1.Cl.Cl | Metabolite_Detected

Tested on: Liver
Assay: Drug metabolism in human liver microsomes assessed as O-demethylation of 6 and 7 methoxy groups at 1 uM after 60 mins in presence of NADPH by LC-MS method
Format: ADME, microsome
Settings: 1 h

SMILES | Drug metabolism
COc1cc2nc(Nc3ccc(F)cc3)nc(NCc3ccccc3)c2cc1OC | Metabolite_Detected

Tested on: Liver
Assay: Drug metabolism in mouse liver microsomes assessed as mono-oxygenation at 6th position of quinazoline at 1 uM after 60 mins in presence of NADPH by LC-MS method
Format: ADME, microsome
Settings: 1 h

SMILES | Drug metabolism
CN1CCC(Nc2nc(Nc3ccc(F)c(Cl)c3)nc3ccccc23)CC1.Cl.Cl | Metabolite_Detected

Tested on: Liver
Assay: Drug metabolism in human liver microsomes assessed as N-demethylation of methyl piperidine or piperazine at 1 uM after 60 mins in presence of NADPH by LC-MS method
Format: ADME, microsome
Settings: 1 h

SMILES | Drug metabolism
CN1CCC(Nc2nc(Nc3ccc(F)c(Cl)c3)nc3ccccc23)CC1.Cl.Cl | Metabolite_Detected

Tested on: Plasmodium falciparum
Assay: Antimalarial activity against synchronous culture of Plasmodium falciparum 3D7 infected in human erythrocytes assessed as development arrest at ring stage of asexual life cycle leading to parasite death at 10 times EC50 up to 48 hrs by Giemsa-staining based assay relative to control
Format: functional, cell-based
Settings: not given

SMILES | Activity
CN1CCC(Nc2nc(Nc3ccc(F)c(Cl)c3)nc3ccccc23)CC1.Cl.Cl | Active

Tested on: not listed separately
Assay: Half life in mouse liver microsomes at 1 uM in presence of NADPH by LC-MS method
Format: ADME, microsome
Settings: not given

SMILES | half-life at 1 µM [h]
CN1CCC(Nc2nc(Nc3ccc(F)c(Cl)c3)nc3ccccc23)CC1.Cl.Cl | 2.48
COc1cc2nc(Nc3ccc(F)cc3)nc(NCc3ccccc3)c2cc1OC | 0.817

Tested on: Plasma
Assay: Drug uptake in Plasmodium berghei ANKA infected Swiss black mouse plasma at 20 mg/kg, po via gavage measured after 20 hrs
Format: ADME, organism-based
Settings: in vivo

SMILES | Drug uptake
CN1CCC(Nc2nc(Nc3ccc(F)c(Cl)c3)nc3ccccc23)CC1.Cl.Cl | Active

Tested on: Plasmodium falciparum
Assay: Antimalarial activity against Plasmodium falciparum NF54 harboring pfs16-LUC-GFP ring stage gametocytes after 24 hrs by MitoTracker Red staining based confocal microscopy
Format: functional
Settings: NF54, 24 h

SMILES | EC50 [nM]
CN1CCC(Nc2nc(Nc3ccc(F)c(Cl)c3)nc3ccccc23)CC1.Cl.Cl | 223

Tested on: not listed separately
Assay: Selectivity index, ratio of EC50 for human HepG2 cells to EC50 for Plasmodium falciparum 3D7 asexual blood stage infected in human erythrocytes
Format: toxicity, cell-based
Settings: read-out: Ratio EC50

SMILES | selectivity ratio
CN1CCC(Nc2nc(Nc3ccc(F)c(Cl)c3)nc3ccccc23)CC1.Cl.Cl | 145
COc1cc2nc(Nc3ccc(F)cc3)nc(NCc3ccccc3)c2cc1OC | 109

Tested on: Plasma
Assay: Drug uptake in Plasmodium berghei ANKA infected Swiss black mouse plasma at 20 mg/kg, ip measured after 20 hrs
Format: ADME, organism-based
Settings: in vivo

SMILES | Drug uptake
CN1CCC(Nc2nc(Nc3ccc(F)c(Cl)c3)nc3ccccc23)CC1.Cl.Cl | Active

Tested on: Plasmodium falciparum
Assay: Antimalarial activity against chloroquine and mefloquine resistant Plasmodium falciparum W2mef infected in human erythrocytes incubated for 72 hrs by LDH assay
Format: functional, cell-based
Settings: not given

SMILES | EC50 [nM]
CN1CCC(Nc2nc(Nc3ccc(F)c(Cl)c3)nc3ccccc23)CC1.Cl.Cl | 54

Tested on: Plasmodium berghei
Assay: Antimalarial activity against Plasmodium berghei ANKA infected Swiss black mouse model at 20 mg/kg administered via oral gavage for 4 days starting 4 hrs post infection by microscopic method
Format: functional
Settings: not given

SMILES | Activity
CN1CCC(Nc2nc(Nc3ccc(F)c(Cl)c3)nc3ccccc23)CC1.Cl.Cl | Active

Tested on: not listed separately
Assay: Hepatic extraction ratio in human liver microsomes at 1 uM in presence of NADPH by LC-MS method
Format: ADME, microsome
Settings: read-out: ERH

SMILES | hepatic extraction ratio at 1 µM
CN1CCC(Nc2nc(Nc3ccc(F)c(Cl)c3)nc3ccccc23)CC1.Cl.Cl | < 0.22
COc1cc2nc(Nc3ccc(F)cc3)nc(NCc3ccccc3)c2cc1OC | < 0.22

Tested on: not listed separately
Assay: Ratio of EC50 for Plasmodium falciparum NF54-pfs16-LUC-GFP early stage gametocytes to EC50 for Plasmodium falciparum 3D7 asexual blood stage infected in human erythrocytes
Format: functional
Settings: not given

SMILES | Ratio EC50
CN1CCC(Nc2nc(Nc3ccc(F)c(Cl)c3)nc3ccccc23)CC1.Cl.Cl | 15 - 25

Tested on: not listed separately
Assay: Aqueous solubility of the compound at pH 6.5 by nephelometry
Format: physicochemical
Settings: not given

SMILES | solubility kinetic [µM]
CN1CCC(Nc2nc(Nc3ccc(F)c(Cl)c3)nc3ccccc23)CC1.Cl.Cl | 11.3 to 23
COc1cc2nc(Nc3ccc(F)cc3)nc(NCc3ccccc3)c2cc1OC | 1.6 to 3.1 (≈ 0.647 to 1.25 µg/mL)

Tested on: Liver
Assay: Drug metabolism in mouse liver microsomes assessed as O-demethylation of 6 and 7 methoxy groups at 1 uM after 60 mins in presence of NADPH by LC-MS method
Format: ADME, microsome
Settings: 1 h

SMILES | Drug metabolism
COc1cc2nc(Nc3ccc(F)cc3)nc(NCc3ccccc3)c2cc1OC | Metabolite_Detected

Tested on: not listed separately
Assay: Half life in human liver microsomes at 1 uM in presence of NADPH by LC-MS method
Format: ADME, microsome
Settings: not given

SMILES | half-life at 1 µM [h]
CN1CCC(Nc2nc(Nc3ccc(F)c(Cl)c3)nc3ccccc23)CC1.Cl.Cl | > 4.25
COc1cc2nc(Nc3ccc(F)cc3)nc(NCc3ccccc3)c2cc1OC | > 4.12

Tested on: HepG2
Assay: Cytotoxicity against human HepG2 cells assessed as growth inhibition after 48 hrs by Cell Titer-Glo assay
Format: cell-based
Settings: HepG2, 48 h

SMILES | EC50 [nM]
CN1CCC(Nc2nc(Nc3ccc(F)c(Cl)c3)nc3ccccc23)CC1.Cl.Cl | 5100
COc1cc2nc(Nc3ccc(F)cc3)nc(NCc3ccccc3)c2cc1OC | 2800

Tested on: Plasmodium falciparum
Assay: Antimalarial activity against Plasmodium falciparum NF54 harboring pfs16-LUC-GFP early stage 1 to 3 gametocytes after 48 hrs by MitoTracker Red staining based confocal microscopy
Format: functional
Settings: NF54, 48 h

SMILES | EC50 [nM]
CN1CCC(Nc2nc(Nc3ccc(F)c(Cl)c3)nc3ccccc23)CC1.Cl.Cl | 515

Tested on: not listed separately
Assay: Aqueous solubility of the compound at pH 2 by nephelometry
Format: physicochemical
Settings: not given

SMILES | solubility kinetic [µM]
CN1CCC(Nc2nc(Nc3ccc(F)c(Cl)c3)nc3ccccc23)CC1.Cl.Cl | > 90
COc1cc2nc(Nc3ccc(F)cc3)nc(NCc3ccccc3)c2cc1OC | 1.6 to 3.1 (≈ 0.647 to 1.25 µg/mL)

Tested on: not listed separately
Assay: Intrinsic clearance in mouse liver microsomes at 1 uM in presence of NADPH by LC-MS method
Format: ADME, microsome
Settings: read-out: CLH

SMILES | microsomal CLint at 1 µM [µL/min/mg]
CN1CCC(Nc2nc(Nc3ccc(F)c(Cl)c3)nc3ccccc23)CC1.Cl.Cl | 12
COc1cc2nc(Nc3ccc(F)cc3)nc(NCc3ccccc3)c2cc1OC | 35

Tested on: Liver
Assay: Drug metabolism in human liver microsomes assessed as hydro defluorination at 1 uM after 60 mins in presence of NADPH by LC-MS method
Format: ADME, microsome
Settings: 1 h

SMILES | Drug metabolism
CN1CCC(Nc2nc(Nc3ccc(F)c(Cl)c3)nc3ccccc23)CC1.Cl.Cl | Metabolite_Detected
